Data as given in patent US20090238808A1, “Process for the identification of novel enzyme interacting compounds” (priority 2005, published 2009).

What was measured:
Test in all cases: Kinobeads elution with test compound, mouse brain lysate, MS
Assay type in all cases: binding
Settings in all cases: kinase released from kinobeads by specific elution
[1] = target: T1, TRKB (Mus musculus, UniProt P15209)
T1 construct: from tissue; host or cells: mouse brain
From the text: This example illustrates competitive elution of proteins bound to kinobeads with non-modified test compounds (see particularly the fourth aspect of the invention).
The kinobeads were contacted with mouse brain lysate under conditions that allow the binding of the proteins in the lysate to the ligands. The binding conditions were close to physiological by choosing suitable buffer conditions preserving the function of the proteins. After removing non-captured proteins through a gentle washing procedure the bound proteins were contacted with a test compound for protein elution.
Various test compounds (see section 2.7) were used to release bound proteins following these steps:
1. Resuspend beads with bound proteins (section 2.4) in 1×DP buffer/0.2% NP-40 as 1:3 slurry (volume/volume). 2. Transfer 20 μl the 1:3 slurry into MoBiTech columns (equivalent to 5 μl of beads). 3. Place the column into an Eppendorf tube and centrifuge it for 15 seconds at 800 rpm at 4° C. Close columns with lower lid. 4. Add 10 μl elution buffer containing 1.0 mM of the test compound (concentration ranges of 0.1 to 1.0 mM are suitable). As a control use elution buffer containing 2% DMSO or 2% DMF dependent on the solvent used for dissolving the test compound. Close column with upper lid. 5. Incubate for 30 minutes at 4° C. in an Eppendorf incubator at 700 rpm. 6. […] To harvest the eluate centrifuge 2 minutes at 2.000 rpm in table top centrifuge at room temperature. The typical volume of the eluate is approximately 15 μl. 7. Add 5 μl 4× NuPAGE SDS Sample Buffer (Invitrogen, NP0007) containing 100 mM DTT (DTT has to be added just prior to use). 8. Incubate for 30 minutes at 50° C. 9. Add 1/10 volume of 200 mg/ml iodoacetamide, incubate for 30 min at room temperature, protect from light. This reaction leads to the alkylation of cysteines for mass spectrometry. 10. Before loading samples onto the gel, centrifuge samples for 5 minutes at 15.000 rpm in order to remove precipitates. 11. […] 2.6 Preparation of Stock Solutions used in this Protocol
Search criteria varied depending on which mass spectrometer was used for the analysis.

[2] = target: T2, EphB1 (Mus musculus, UniProt Q8CBF3)
T2 sequence (Q8CBF3 18-984): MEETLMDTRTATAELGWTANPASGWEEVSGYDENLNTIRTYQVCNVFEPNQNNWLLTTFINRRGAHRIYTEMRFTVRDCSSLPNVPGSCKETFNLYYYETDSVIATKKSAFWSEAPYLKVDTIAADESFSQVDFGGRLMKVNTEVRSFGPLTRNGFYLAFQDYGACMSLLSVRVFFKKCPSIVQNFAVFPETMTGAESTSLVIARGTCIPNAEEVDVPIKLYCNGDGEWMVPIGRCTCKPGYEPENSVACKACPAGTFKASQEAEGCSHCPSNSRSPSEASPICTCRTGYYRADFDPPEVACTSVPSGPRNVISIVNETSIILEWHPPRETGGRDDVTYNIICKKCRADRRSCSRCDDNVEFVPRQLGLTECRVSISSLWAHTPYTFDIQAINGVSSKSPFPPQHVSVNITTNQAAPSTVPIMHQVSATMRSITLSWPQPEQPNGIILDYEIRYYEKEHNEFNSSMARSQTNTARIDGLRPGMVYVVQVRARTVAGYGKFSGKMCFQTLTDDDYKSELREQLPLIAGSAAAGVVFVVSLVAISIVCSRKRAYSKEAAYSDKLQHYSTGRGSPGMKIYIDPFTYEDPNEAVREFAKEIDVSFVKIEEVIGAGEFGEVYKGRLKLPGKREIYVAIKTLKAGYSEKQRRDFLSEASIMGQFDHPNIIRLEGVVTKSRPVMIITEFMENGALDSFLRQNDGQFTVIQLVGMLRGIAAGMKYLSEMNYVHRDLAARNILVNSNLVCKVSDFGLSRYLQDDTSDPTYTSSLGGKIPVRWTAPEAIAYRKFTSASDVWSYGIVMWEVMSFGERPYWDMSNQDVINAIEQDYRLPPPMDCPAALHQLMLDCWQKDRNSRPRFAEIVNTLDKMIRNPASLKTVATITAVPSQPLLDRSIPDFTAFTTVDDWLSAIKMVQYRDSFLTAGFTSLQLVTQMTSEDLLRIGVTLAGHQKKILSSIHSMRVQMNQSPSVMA
Procedure, shortened: (§1)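 Competitive elution: mouse brain lysate bound to kinobeads, gentle wash, test compound 1.0 mM in elution buffer, 30 min, 4° C; solvent control 2% DMSO/DMF. Eluates → DTT reduction, iodoacetamide alkylation, SDS gel → MS identification.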

[3] = target: T3, p38a (Mus musculus, UniProt P47811)
T3 construct: from tissue; host or cells: mouse brain
Procedure, shortened: as §1

[4] = target: T4, p38b (Mus musculus, UniProt Q9WUI1)
T4 construct: from tissue; host or cells: mouse brain
Procedure, shortened: as §1

[5] = target: ARG (Mus musculus, UniProt Q4JIM5)
Procedure, shortened: as §1

T1 sequence (P15209 32-821): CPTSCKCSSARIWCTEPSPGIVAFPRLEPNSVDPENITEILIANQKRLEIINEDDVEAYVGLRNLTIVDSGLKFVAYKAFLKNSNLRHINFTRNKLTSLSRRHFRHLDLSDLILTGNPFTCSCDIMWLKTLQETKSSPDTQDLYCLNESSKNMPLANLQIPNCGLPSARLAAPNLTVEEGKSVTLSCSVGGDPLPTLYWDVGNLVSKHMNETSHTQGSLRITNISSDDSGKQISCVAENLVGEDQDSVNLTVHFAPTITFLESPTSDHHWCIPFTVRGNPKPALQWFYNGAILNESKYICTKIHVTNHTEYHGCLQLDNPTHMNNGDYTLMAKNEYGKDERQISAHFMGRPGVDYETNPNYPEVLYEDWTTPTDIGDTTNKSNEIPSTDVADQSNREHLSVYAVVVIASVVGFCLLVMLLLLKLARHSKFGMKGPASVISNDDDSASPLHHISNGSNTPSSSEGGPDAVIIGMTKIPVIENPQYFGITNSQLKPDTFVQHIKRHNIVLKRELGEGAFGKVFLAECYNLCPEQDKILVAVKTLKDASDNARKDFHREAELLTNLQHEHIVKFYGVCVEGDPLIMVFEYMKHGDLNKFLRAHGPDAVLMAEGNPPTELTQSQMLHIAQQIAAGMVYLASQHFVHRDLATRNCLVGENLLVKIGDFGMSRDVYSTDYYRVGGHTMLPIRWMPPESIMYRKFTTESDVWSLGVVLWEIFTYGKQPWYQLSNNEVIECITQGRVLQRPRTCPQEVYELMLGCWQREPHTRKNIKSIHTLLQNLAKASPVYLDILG
T3 sequence (P47811 whole entry): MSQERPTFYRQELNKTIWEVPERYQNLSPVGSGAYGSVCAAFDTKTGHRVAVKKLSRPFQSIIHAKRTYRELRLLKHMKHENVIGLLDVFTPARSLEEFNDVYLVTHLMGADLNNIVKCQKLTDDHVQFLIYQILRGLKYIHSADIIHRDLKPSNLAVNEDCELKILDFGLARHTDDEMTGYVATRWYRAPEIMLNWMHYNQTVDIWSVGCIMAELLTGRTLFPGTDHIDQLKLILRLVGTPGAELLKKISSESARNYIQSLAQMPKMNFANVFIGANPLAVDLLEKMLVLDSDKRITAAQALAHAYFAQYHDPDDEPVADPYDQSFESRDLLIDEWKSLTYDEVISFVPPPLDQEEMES
Sequence of ARG (Q4JIM5 whole entry): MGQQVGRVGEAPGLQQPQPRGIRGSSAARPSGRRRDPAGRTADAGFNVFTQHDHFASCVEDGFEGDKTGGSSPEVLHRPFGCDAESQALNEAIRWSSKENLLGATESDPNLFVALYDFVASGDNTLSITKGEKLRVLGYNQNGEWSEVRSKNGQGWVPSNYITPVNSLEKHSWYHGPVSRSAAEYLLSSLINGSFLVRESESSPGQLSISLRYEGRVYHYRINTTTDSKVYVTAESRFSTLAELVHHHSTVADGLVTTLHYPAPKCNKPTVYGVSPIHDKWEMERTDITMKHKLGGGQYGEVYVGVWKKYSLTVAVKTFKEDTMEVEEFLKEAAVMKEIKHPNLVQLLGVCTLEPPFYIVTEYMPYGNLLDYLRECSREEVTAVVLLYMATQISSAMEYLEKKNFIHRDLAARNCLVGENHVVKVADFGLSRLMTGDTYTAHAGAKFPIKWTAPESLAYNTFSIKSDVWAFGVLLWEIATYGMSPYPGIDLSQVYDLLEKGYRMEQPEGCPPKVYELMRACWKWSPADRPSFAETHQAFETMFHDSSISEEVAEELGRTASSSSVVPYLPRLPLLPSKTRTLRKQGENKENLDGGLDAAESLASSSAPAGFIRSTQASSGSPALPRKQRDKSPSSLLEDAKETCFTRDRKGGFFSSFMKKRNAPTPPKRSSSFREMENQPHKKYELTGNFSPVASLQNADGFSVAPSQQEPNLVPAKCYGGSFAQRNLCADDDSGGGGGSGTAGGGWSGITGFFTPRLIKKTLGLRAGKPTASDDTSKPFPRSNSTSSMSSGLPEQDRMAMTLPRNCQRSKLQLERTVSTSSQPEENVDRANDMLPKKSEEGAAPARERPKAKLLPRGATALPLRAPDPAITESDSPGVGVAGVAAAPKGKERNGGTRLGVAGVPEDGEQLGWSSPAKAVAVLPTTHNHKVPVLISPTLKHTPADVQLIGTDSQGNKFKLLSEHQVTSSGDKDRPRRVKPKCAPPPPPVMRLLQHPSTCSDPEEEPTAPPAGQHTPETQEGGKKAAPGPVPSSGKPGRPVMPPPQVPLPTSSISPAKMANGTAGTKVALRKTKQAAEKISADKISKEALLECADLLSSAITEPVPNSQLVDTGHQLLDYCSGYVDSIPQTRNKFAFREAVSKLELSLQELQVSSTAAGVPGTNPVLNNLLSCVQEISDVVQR
T4 sequence (Q9WUI1 whole entry): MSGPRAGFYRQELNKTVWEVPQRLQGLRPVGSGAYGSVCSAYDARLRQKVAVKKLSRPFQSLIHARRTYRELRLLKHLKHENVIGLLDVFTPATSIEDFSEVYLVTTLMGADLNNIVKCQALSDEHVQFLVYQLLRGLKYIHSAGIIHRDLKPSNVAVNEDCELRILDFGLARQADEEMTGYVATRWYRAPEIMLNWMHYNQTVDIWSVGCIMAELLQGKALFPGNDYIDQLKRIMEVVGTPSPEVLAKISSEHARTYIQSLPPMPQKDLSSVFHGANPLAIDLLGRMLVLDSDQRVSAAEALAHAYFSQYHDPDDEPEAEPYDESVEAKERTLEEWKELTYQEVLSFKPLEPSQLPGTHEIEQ

mass spectrometry score, TRKB [1] | mass spectrometry score, EphB1 [2] | number of identified peptides, EphB1 [2] | mass spectrometry score, p38a [3] | number of identified peptides, p38a [3] | mass spectrometry score, p38b [4] | number of identified peptides, p38b [4] | mass spectrometry score, ARG [5] | number of identified peptides, ARG [5] | Structure (SMILES) | number of identified peptides, TRKB [1]
 |  |  |  |  |  |  |  |  | CNC1CC2OC(C)(C1OC)n1c3ccccc3c3c4c(c5c6ccccc6n2c5c31)C(=O)NC4 (stereo not shown) [CZC9280] | 4
207 | 366 | 10 |  |  |  |  |  |  | CC(C)[C@H](CO)Nc1nc(Nc2ccc(C(=O)O)c(Cl)c2)c2ncn(C(C)C)c2n1 [Purvalanol B, reference compound] | 4
 | 180 | 10 | 104 | 7 | 95 | 3 | 452 | 28 | CCCCCCCCCCCCOS(=O)(=O)[O-].[Na+] [SDS] | 
 |  |  | 127 | 6 | 60 | 1 | 59 | 2 | Cn1c(=O)c(-c2c(Cl)cccc2Cl)cc2cnc(Nc3ccc(CN)cc3)cc21 [CZC7324] | 
